Reference: ChEMBL document CHEMBL4725430, “Discovery of Zika Virus NS2B/NS3 Inhibitors That Prevent Mice from Life-Threatening Infection and Brain Damage” (ACS Med Chem Lett, 2020)
Active and inactive are the calls of the source. The rule behind the calls is not given here.

Key:
Zika virus [1] = experiment: Antiviral activity against Zika virus 976 Uganda infected in human HepG2 cells assessed as protection against viral infection by measuring cell survival at 10 uM measured after 4 days by CellTiter-Glo luminescent cell viability assay relative to control; format: functional; details: HepG2, 96 h, time 4 day
[2] = Cytotoxicity against human HepG2 cells assessed as cell viability at 10 uM measured after 4 days by CellTiter-Glo luminescent cell viability assay relative to control; format: cell-based; details: time 4 day, read-out: Activity
[3] = Inhibition of N-terminal thrombin cleavage fused His-tagged Zika virus ARD41644 NS2B Arg95Ala mutant (49 to 95 residues)/NS3 Arg29Gly mutant (1 to 170 residues) protease expressed in Escherichia coli BL21pLysS using Bz-nKRR-MCA peptide as substrate by FRET assay
Zika virus [4] = experiment: Antiviral activity against Zika virus MR766 infected in human Huh-7 cells assessed as reduction in viral infection; format: functional, organism-based; details: MR766, Huh-7
[5] = Non- competitive inhibition of N-terminal thrombin cleavage fused His-tagged Zika virus ARD41644 NS2B Arg95Ala mutant (49 to 95 residues)/NS3 Arg29Gly mutant (1 to 170 residues) protease expressed in Escherichia coli BL21pLysS using varying levels Bz-nKRR-MCA as substrate by Lineweaver-Burk double reciprocal plot analysis
[6] = Binding affinity to N-terminal thrombin cleavage fused His-tagged Zika virus ARD41644 NS2B Arg95Ala mutant (49 to 95 residues)/NS3 Arg29Gly mutant (1 to 170 residues) protease expressed in Escherichia coli BL21pLysS by MST method
Zika virus [7] = experiment: Antiviral activity against Zika virus 976 Uganda infected in human HepG2 cells assessed as inhibition of viral infection measured after 4 days by CellTiter-Glo luminescent cell viability assay; format: functional, organism-based; details: HepG2, 96 h
[8] = Inhibition of DENV2 NS2B-NS3 protease using Bz-nKRR-MCA as substrate by FRET assay; parameters: species or system dengue virus type 2
Zika virus [9] = experiment: Antiviral activity against Zika virus MR766 infected in human Huh-7 cells assessed as reduction in viral NS2B protein synthesis incubated for 3 days by Western blot analysis; format: functional, organism-based; details: dose microM 1-20, time 3.0 day
Zika virus [10] = experiment: Antiviral activity against Zika virus MR766 infected in human Huh-7 cells assessed as reduction in viral RNA synthesis incubated for 3 days by qRT-PCR analysis; format: functional, organism-based
Huh-7 = experiment: Cytotoxicity against human Huh-7 cells; format: cell-based
Zika virus [11] = experiment: Antiviral activity against Zika virus infected in 6 days old suckling ICR mouse assessed as improvement in body weight at 1 mg/kg, ip administered at day 1, 3 and 5 post-infection and monitored daily for 6 days post-infection; format: functional, organism-based
Zika virus [12] = experiment: Antiviral activity against Zika virus infected in 6 days old suckling ICR mouse assessed as improvement in survival rate at 1 mg/kg, ip administered at day 1, 3 and 5 post-infection and monitored daily for 6 days post-infection; format: functional, organism-based
Zika virus [13] = experiment: Antiviral activity against Zika virus infected in 6 days old suckling ICR mouse assessed as inhibition of viral replication in brain at 1 mg/kg, ip administered at day 1, 3 and 5 post-infection by immunohistochemical staining; format: functional, organism-based
Zika virus [14] = experiment: Antiviral activity against Zika virus infected in 6 days old suckling ICR mouse assessed as reduction in virus titer in brain at 1 mg/kg, ip administered at day 1, 3 and 5 post-infection; format: functional, organism-based
Zika virus [15] = experiment: Antiviral activity against Zika virus infected in 6 days old suckling ICR mouse assessed as reduction in brain damage at 1 mg/kg, ip administered at day 1, 3 and 5 post-infection by hematoxylin and eosin staining based analysis; format: functional, organism-based
Zika virus [16] = experiment: Antiviral activity against Zika virus infected in 6 days old suckling ICR mouse assessed as reduction in monocyte infiltration in brain at 1 mg/kg, ip administered at day 1, 3 and 5 post-infection by immunohistochemistry analysis; format: functional, organism-based
Zika virus [17] = experiment: Antiviral activity against Zika virus infected in 6 days old suckling ICR mouse assessed as improvement in clinical scores at 1 mg/kg, ip administered at day 1, 3 and 5 post-infection and monitored daily for 6 days post-infection; format: functional, organism-based
[18] = Cytotoxicity against human HepG2 cells assessed as cell viability at 100 uM measured after 4 days by CellTiter-Glo luminescent cell viability assay relative to control; format: cell-based; details: time 4 day, read-out: Activity

Structure (SMILES) | survival at 10 µM (Zika virus [1]) [%] | viability at 96 h, 10 µM [2] [%] | other results
CCOC(=O)c1[nH]c2ccc(OC)cc2c1Cc1cc(OC)c(O)c(OC)c1 | 28 | 100 | –
CCOC(=O)c1[nH]c2ccc(OC)cc2c1C(=O)c1cc(OC)c(O)c(OC)c1 | 47 | 100 | –
CCOC(=O)c1[nH]c2ccccc2c1C(=O)c1cc(OC)c(O)c(OC)c1 | 0 | 100 | –
COc1cc(C(=O)c2c(-c3ccccc3)[nH]c3ccc(Br)cc23)cc(OC)c1O | 23 | 100 | –
CCOC(=O)c1[nH]c2ccc(Br)cc2c1C(=O)c1cc(OC)c(O)c(OC)c1 | 66 | 100 | IC50 [3]: 33 µM; EC50 (Zika virus [4]): 16.2 µM; Ki [5]: 48 µM; Kd [6]: 300 µM; IC50 (Zika virus [7]): 15.8 µM
CCOC(=O)c1[nH]c2ccccc2c1Cc1cc(OC)c(O)c(OC)c1 | 0 | 100 | –
COC(=O)c1[nH]c2ccc(Br)cc2c1Cc1cc(OC)c(O)c(OC)c1 | 2 | 100 | –
COC(=O)c1[nH]c2ccc(Cl)cc2c1C(=O)c1cc(OC)c(O)c(OC)c1 | 47 | 100 | IC50 [3]: 158 µM; EC50 (Zika virus [4]): 13.9 µM; IC50 [8]: 112 µM; Ki [5]: 280 µM; Kd [6]: > 1000 µM; Activity (Zika virus [9]): Dose-dependent effect; IC50 (Zika virus [10]; MR766, Huh-7, 72 h): 13.9 µM; inhibition (Zika virus [10]; time 3.0 day): Dose-dependent effect; Activity (Huh-7): Non-Toxic; Activity (Zika virus [11]): Active; Activity (Zika virus [12]): Active; Activity (Zika virus [13]): Active; Activity (Zika virus [14]): Active; Activity (Zika virus [15]): Active; Activity (Zika virus [16]): Active; IC50 (Zika virus [7]): 13.7 µM; Activity (Zika virus [17]): Active
CCOC(=O)c1[nH]c2ccc(Br)cc2c1Cc1cc(OC)c(O)c(OC)c1 | 20 | 100 | –
CCOC(=O)c1[nH]c2ccc(O)cc2c1C(=O)c1cc(OC)c(O)c(OC)c1 | 0 | 94 | –
NC(=O)c1ncn([C@@H]2O[C@H](CO)[C@@H](O)[C@H]2O)n1 [RIBAVIRIN] | – | – | viability at 96 h, 100 µM [18]: 100%
COC(=O)c1[nH]c2ccc(Cl)cc2c1Cc1cc(OC)c(O)c(OC)c1 | 23 | 100 | –
COC(=O)c1[nH]c2ccc(Cl)cc2c1Cc1cc(OC)cc(OC)c1 | 16 | 100 | IC50 [3]: 770 µM
COC(=O)c1[nH]c2ccc(Br)cc2c1C(=O)c1cc(OC)c(O)c(OC)c1 | 22 | 100 | –
COC(=O)c1[nH]c2ccc(OC)cc2c1C(=O)c1cc(OC)c(O)c(OC)c1 | 49 | 100 | –
